According to the supplement of paper PMC10307832:

Key:
Experiment in all cases: relative viability (nuclei count vs DMSO), 5 days (fraction); higher = more cells survive
[1] = tested on: LK-2
Method in brief: (§1)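 Each reported value is a median over duplicate plates. It expresses relative viability: treated-well nuclei count divided by vehicle-well nuclei count. Lung cancer cell lines in 1536-well plates were dosed by pin tool a day after seeding, alone with one drug or with a fixed anchor-drug dose plus five library-drug doses (not always all listed) in √10 steps, and nuclei were counted after 5 days.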

[2] = tested on: PC-3 [JPC-3]
Method in brief: as §1

[3] = tested on: NCI-H1666
Method in brief: as §1

[4] = tested on: NCI-H1792
Method in brief: as §1

[5] = tested on: H3255
Method in brief: as §1

[6] = tested on: NCI-H596
Method in brief: as §1

[7] = tested on: COR-L 105
Method in brief: as §1

[8] = tested on: LOU-NH91
Method in brief: as §1

[9] = tested on: NCI-H23
Method in brief: as §1

[10] = tested on: HCC-366
Method in brief: as §1

[11] = tested on: A-427
Method in brief: as §1

[12] = tested on: NCI-H1944
Method in brief: as §1

[13] = tested on: EMC-BAC-2
Method in brief: as §1

[14] = tested on: NCI-H520
Method in brief: as §1

[15] = tested on: NCI-H1563
Method in brief: as §1

[16] = tested on: NCI-H1975
Method in brief: as §1

[17] = tested on: NCI-H1734
Method in brief: as §1

[18] = tested on: SK-MES-1
Method in brief: as §1

[19] = tested on: EKVX
Method in brief: as §1

[20] = tested on: NCI-H441
Method in brief: as §1

[21] = tested on: NCI-H1755
Method in brief: as §1

`COc1cc(N2CCC(C(N)=O)CC2)ccc1Nc1nc(N)c(Cl)c(Nc2ccccc2S(=O)(=O)C(C)C)n1` [HG-5-88-01] + C[C@]1(O)C[C@@H](c2nc(-c3ccc4ccc(-c5ccccc5)nc4c3)c3c(N)nccn32)C1 [Linsitinib] (partner 1 µM) was tested, and the relative viability ([1]; first compound 0.04 µM) was 0.591, the relative viability ([1]; first compound 0.1265 µM) was 0.519 and the relative viability ([1]; first compound 0.4 µM) was 0.634. For the same molecule, the relative viability ([1]; first compound 4 µM) was 0.768, the relative viability ([2]; first compound 0.04 µM) was 0.964 and the relative viability ([2]; first compound 0.1265 µM) was 0.956. The relative viability ([2]; first compound 0.4 µM) was 0.947, the relative viability ([2]; first compound 1.265 µM) was 0.944 and the relative viability ([2]; first compound 4 µM) was 0.83. The relative viability ([3]; first compound 0.04 µM) was 0.958, the relative viability ([3]; first compound 0.1265 µM) was 0.882 and the relative viability ([3]; first compound 0.4 µM) was 0.93. It also gave a relative viability ([3]; first compound 1.265 µM) of 0.76, a relative viability ([3]; first compound 4 µM) of 0.581 and a relative viability ([4]; first compound 0.04 µM) of 0.711. The relative viability ([4]; first compound 0.1265 µM) was 0.513, the relative viability ([4]; first compound 0.4 µM) was 0.515 and the relative viability ([4]; first compound 1.265 µM) was 0.561. The relative viability ([4]; first compound 4 µM) was 0.818, the relative viability ([5]; first compound 0.04 µM) was 1.03 and the relative viability ([5]; first compound 0.1265 µM) was 0.913. The relative viability ([5]; first compound 0.4 µM) was 0.939, the relative viability ([5]; first compound 4 µM) was 0.734 and the relative viability ([6]; first compound 0.04 µM) was 1. For the same molecule, the relative viability ([6]; first compound 0.1265 µM) was 1.12, the relative viability ([6]; first compound 0.4 µM) was 1.2 and the relative viability ([6]; first compound 1.265 µM) was 1.13. For the same molecule, the relative viability ([6]; first compound 4 µM) was 1.17, the relative viability ([7]; first compound 0.04 µM) was 0.921 and the relative viability ([7]; first compound 0.1265 µM) was 0.966. It also gave a relative viability ([7]; first compound 0.4 µM) of 1.04, a relative viability ([7]; first compound 1.265 µM) of 0.961 and a relative viability ([7]; first compound 4 µM) of 0.751. It also gave a relative viability ([8]; first compound 0.04 µM) of 1, a relative viability ([8]; first compound 0.1265 µM) of 0.916 and a relative viability ([8]; first compound 0.4 µM) of 0.841. For the same molecule, the relative viability ([8]; first compound 1.265 µM) was 0.609, the relative viability ([8]; first compound 4 µM) was 0.659 and the relative viability ([9]; first compound 0.04 µM) was 0.628. For the same molecule, the relative viability ([9]; first compound 0.1265 µM) was 0.621, the relative viability ([9]; first compound 0.4 µM) was 0.652 and the relative viability ([9]; first compound 1.265 µM) was 0.73. The relative viability ([9]; first compound 4 µM) was 0.61, the relative viability ([10]; first compound 0.04 µM) was 0.573 and the relative viability ([10]; first compound 0.1265 µM) was 0.558. The relative viability ([10]; first compound 0.4 µM) was 0.492, the relative viability ([10]; first compound 1.265 µM) was 0.608 and the relative viability ([10]; first compound 4 µM) was 0.912. For the same molecule, the relative viability ([11]; first compound 0.04 µM) was 1.07, the relative viability ([11]; first compound 0.1265 µM) was 1.11 and the relative viability ([11]; first compound 0.4 µM) was 1.15. The relative viability ([11]; first compound 1.265 µM) was 1.14, the relative viability ([11]; first compound 4 µM) was 1.09 and the relative viability ([12]; first compound 0.04 µM) was 1.14. For the same molecule, the relative viability ([12]; first compound 0.1265 µM) was 1.19, the relative viability ([12]; first compound 0.4 µM) was 1.19 and the relative viability ([12]; first compound 1.265 µM) was 0.803. For the same molecule, the relative viability ([12]; first compound 4 µM) was 1.31, the relative viability ([13]; first compound 0.04 µM) was 0.79 and the relative viability ([13]; first compound 0.1265 µM) was 0.849. For the same molecule, the relative viability ([13]; first compound 0.4 µM) was 0.771, the relative viability ([13]; first compound 1.265 µM) was 0.758 and the relative viability ([13]; first compound 4 µM) was 0.851. The relative viability ([14]; first compound 0.04 µM) was 0.926, the relative viability ([14]; first compound 0.1265 µM) was 0.832 and the relative viability ([14]; first compound 0.4 µM) was 0.689. It also gave a relative viability ([14]; first compound 1.265 µM) of 1.18, a relative viability ([14]; first compound 4 µM) of 1.14 and a relative viability ([15]; first compound 0.04 µM) of 1.1. The relative viability ([15]; first compound 0.1265 µM) was 1.17, the relative viability ([15]; first compound 0.4 µM) was 1.23 and the relative viability ([15]; first compound 1.265 µM) was 1.21. It also gave a relative viability ([15]; first compound 4 µM) of 1.21, a relative viability ([16]; first compound 0.04 µM) of 0.995 and a relative viability ([16]; first compound 0.1265 µM) of 1. For the same molecule, the relative viability ([16]; first compound 0.4 µM) was 0.682, the relative viability ([16]; first compound 1.265 µM) was 0.859 and the relative viability ([16]; first compound 4 µM) was 0.497. It also gave a relative viability ([17]; first compound 0.04 µM) of 0.811, a relative viability ([17]; first compound 0.1265 µM) of 0.851 and a relative viability ([17]; first compound 0.4 µM) of 0.964. For the same molecule, the relative viability ([17]; first compound 1.265 µM) was 0.885, the relative viability ([17]; first compound 4 µM) was 1.02 and the relative viability ([18]; first compound 0.04 µM) was 1.02. For the same molecule, the relative viability ([18]; first compound 0.1265 µM) was 1.03, the relative viability ([18]; first compound 0.4 µM) was 1.08 and the relative viability ([18]; first compound 1.265 µM) was 1.04. The relative viability ([18]; first compound 4 µM) was 1.14, the relative viability ([19]; first compound 0.04 µM) was 0.972 and the relative viability ([19]; first compound 0.1265 µM) was 1.11. The relative viability ([19]; first compound 0.4 µM) was 0.889, the relative viability ([19]; first compound 4 µM) was 1.03 and the relative viability ([20]; first compound 0.04 µM) was 0.662. For the same molecule, the relative viability ([20]; first compound 0.1265 µM) was 0.536, the relative viability ([20]; first compound 0.4 µM) was 0.821 and the relative viability ([20]; first compound 1.265 µM) was 0.399. It also gave a relative viability ([20]; first compound 4 µM) of 0.586, a relative viability ([21]; first compound 0.1265 µM) of 0.902 and a relative viability ([21]; first compound 0.4 µM) of 1.01. It also gave a relative viability ([21]; first compound 1.265 µM) of 0.983 and a relative viability ([21]; first compound 4 µM) of 1.09.
